In patent EP4050002A1, “ANTI-PROLIFERATIVE AGENTS” (First Health Pharmaceuticals B.V., priority 2021, dated 2022):

Columns and labels:
[1] = biological target: DDX3X (Homo sapiens, UniProt O00571); test: Helicase assay (unwinding of 18/36mer dsRNA); assay type: biochemical; parameters: host or cells: 293T cells (transient transfection, anti-HA immunoprecipitation, protein kept on beads); details: 50, 250 and 500 µM, in presence of ATP
Method: The DDX3X protein was obtained by immunoprecipitation from 293T cells (3x10^5) were seeded in 6-well plates and, after 24h, transfected with 1 µg of HA-DDX3 (Addgene plasmid # 44975) by using the Lipofectamine reagent (Thermo Fischer Scientific). After 36 h, cells were lysed in NP-40 Lysis Buffer (20 mM HEPES pH=7.5, 10 mM EGTA pH=8, 40 mM β-glycerolphosphate, 1% NP40, 2.5 mM MgCl2, 2 mM Orthovanadate, 2 mM NaF, 1 mM DTT, and 1X protease inhibitors mixture) and 2 mg of proteins were immunoprecipitated with anti-HA antibodies (Covance) in NP40 lysis buffer. Immunoprecipitated samples were washed twice with lysis buffer and one time in helicase reaction buffer (50 mM Tris HCl pH=8, 1 mM DTT, 5% glycerol, 10 mM MgCl2). Beads were then resuspended in 100 µl in helicase reaction buffer. […]
Ultimately, reactions were performed in a final volume 100 µl of helicase reaction buffer plus ATP 4 mM, 30 µl of beads used to immunoprecipitate HA-DDX3X, 20 nM of 18/36mer dsRNA and 100 nM of competitor at 37°C for 1 hour and stopped by adding 10 µl of a stopping solution (EDTA 60 mM pH=8, 40% glycerol, 0.6% SDS, 1% Orange G). […] Quantification of the ssRNA was performed by the ImageJ software (version 1.53, NIH). […]

[2] = Plasma stability; assay type: in vitro ADME; details: Human plasma
Method: (§1) Plasma previously separated from whole blood in EDTA-treated tubes and frozen; blood samples obtained from healthy volunteers, Sprague Dawley rats and CD1 mice, was thawed at room temperature and centrifuged at 1400x RCF 4°C, for 15 minutes. Approximately 90% of the clear supernatant fraction was transferred to a separate tube and was used for the assay.
(§2) Stocks (1 mM and 25 µM) of test compound were prepared in acetonitrile:water (50:50 v/v). Plasma samples were heat inactivated at 54°C. 3 µl of 25 µM test compound were added to 72 µl of heat inactivated plasma. A 50 µL aliquot of the mixture was taken and crashed with 200 µl of acetonitrile containing Telmisartan 100 ng/ml as internal standard and was further processed along with other time points: 10, 30 60 and 120 minutes.
(§3) Final working stock of 1 µM was prepared by diluting 12 µl of 25 µM stock in 288 µl of plasma. The obtained solution (300 µl) of plasma containing the test compound was incubated for […] at 37°C in shaker water bath with gentle shaking. 50 µl aliquot of sample at 10, 30, 60 and 120 min was precipitated immediately with 200 µl of acetonitrile containing internal standard and centrifuged at 4000x RCF, 4°C for 20 minutes. 150 µl of supernatant was diluted with 150 µl of water and analyzed by LC-MS/MS.
(§4) The % remaining of the test substance was calculated as: (Peak Area ratio at time (min))/(Peak Area Ratio at 0 min) ^∗ 100
(§5) The API400 MS and Agilent 1260 Infinity LC were used. Mobile Phase included 10mM Ammonium acetate with 0.1% formic acid in MilliQ water, and Methanol. The column was Phenomenex, KINETIC EVO C18 100A 5u 50^∗4.6 mm, 10 µl injection volume.

[3] = Plasma stability; assay type: in vitro ADME, Sprague Dawley rats; details: Rat plasma
Method: as §1, §2, §3, §4, §5

[4] = Dose estimation by allometric relationship (PAD, HED); details: mouse models
Description: Based on pharmacokinetic studies and efficacy in vivo, it is possible to estimate a dosage in humans by allometric relationship (USFDA. Guidance for Industry: Estimating the Maximum Safe Starting Dose in Adult Healthy Volunteer. Rockville, MD: US Food and Drug Administration; 2005). […] The human equivalent dose (HED) can be estimated according with the FDA guidelines by means of the following formula: HED = animal dose × (((animal weight)/(human weight)))^((1−0.67)) [formula]
Based on PAD in mouse models, the HED can be estimated as 1.8 mg/(Kg·day) considering a mouse average weight of 30 g and an adult human body weight of 60 Kg.

DDX3X, sequence (O00571 whole entry): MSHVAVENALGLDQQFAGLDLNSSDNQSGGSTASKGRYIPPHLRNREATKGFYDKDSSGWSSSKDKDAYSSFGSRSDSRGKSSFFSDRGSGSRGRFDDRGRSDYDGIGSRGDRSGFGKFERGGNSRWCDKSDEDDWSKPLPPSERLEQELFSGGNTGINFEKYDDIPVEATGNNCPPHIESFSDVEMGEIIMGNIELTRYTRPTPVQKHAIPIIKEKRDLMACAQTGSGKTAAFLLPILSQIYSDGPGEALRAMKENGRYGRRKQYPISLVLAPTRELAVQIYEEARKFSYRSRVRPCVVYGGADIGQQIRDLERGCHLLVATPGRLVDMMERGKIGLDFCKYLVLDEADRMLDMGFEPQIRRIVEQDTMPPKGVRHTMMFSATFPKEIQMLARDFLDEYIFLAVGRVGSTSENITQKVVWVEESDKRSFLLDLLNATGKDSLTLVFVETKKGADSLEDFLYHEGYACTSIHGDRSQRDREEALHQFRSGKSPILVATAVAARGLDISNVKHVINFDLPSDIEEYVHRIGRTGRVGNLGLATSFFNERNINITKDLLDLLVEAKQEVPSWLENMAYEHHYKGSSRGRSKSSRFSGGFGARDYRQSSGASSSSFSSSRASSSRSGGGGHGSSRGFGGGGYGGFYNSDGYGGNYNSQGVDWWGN

## CCCCc1cn(-c2ccc(-c3nnc(-c4ccccc4C(F)(F)F)o3)cc2)nn1 [Compound 5]
[1]
  inhibitory effect on DDX3X helicase activity: inhibitory effect on DDX3X helicase activity
[2]; 0 minutes
  % Remaining ± SD: 100.0 ± 3.9%
[2]; 10 minutes
  % Remaining ± SD: 107.1 ± 7.7%
[2]; 30 minutes
  % Remaining ± SD: 87.2 ± 10.3%
[2]; 60 minutes
  % Remaining ± SD: 88.3 ± 7.0%
[2]; 120 minutes
  % Remaining ± SD: 88.2 ± 8.2%
[3]; 0 minutes
  % Remaining ± SD: 100.0 ± 1.0%
[3]; 10 minutes
  % Remaining ± SD: 107.1 ± 4.1%
[3]; 30 minutes
  % Remaining ± SD: 103.3 ± 2.3%
[3]; 60 minutes
  % Remaining ± SD: 99.0 ± 6.8%
[3]; 120 minutes
  % Remaining ± SD: 104.8 ± 5.6%
[4]
  pharmacologically active dose (PAD): 22.5 mg·kg-1·day-1
